Data taken from ChEMBL document CHEMBL3885881, “DrugMatrix”.

Organism: Rattus norvegicus
Format: toxicity, organism-based, Sprague-Dawley
Conditions: in vivo, po, 24 h, route oral GAVAGE, time 1 day, vehicle 100 % SALINE; for ABSOLUTE BASOPHIL / ABSOLUTE EOSINOPHIL / ABSOLUTE LYMPHOCYTE / ABSOLUTE MONOCYTE / BASOPHIL / EOSINOPHIL / ERYTHROCYTE COUNT / HEMATOCRIT / HEMOGLOBIN / LEUKOCYTE COUNT / LYMPHOCYTE / MEAN CORPUSCULAR HEMOGLOBIN / MEAN CORPUSCULAR HEMOGLOBIN CONCENTRATION / MEAN CORPUSCULAR VOLUME / MONOCYTE / NEUTROPHIL / PLATELET COUNT: tissue Blood; for ALANINE AMINOTRANSFERASE / ALBUMIN / ALKALINE PHOSPHATASE / ASPARTATE AMINOTRANSFERASE / BLOOD UREA NITROGEN / CARBON DIOXIDE / CHLORIDE / CHOLESTEROL / CREATINE PHOSPHOKINASE / CREATININE / GLUCOSE / LACTATE DEHYDROGENASE / LIPASE / PHOSPHORUS / POTASSIUM / SODIUM / TOTAL BILIRUBIN / TOTAL PROTEIN / URIC ACID: tissue Plasma
[1] = 0 mg/kg, vehicle control, dose level Control
[2] = […], dose 7.5 mg/Kg, dose level High

Description: DrugMatrix - Regimen: Single

Nc1ncnc2c1ncn2[C@@H]1O[C@H](CO)[C@@H](O)[C@H]1F [2'-BETA-FLUORO-2',3'-DEOXYADENOSINE]
ABSOLUTE BASOPHIL [1]: 73.3 cells/µL
ABSOLUTE EOSINOPHIL [1]: 86.7 cells/µL
ABSOLUTE LYMPHOCYTE [1]: 8400 cells/µL
ABSOLUTE MONOCYTE [1]: 350 cells/µL
BASOPHIL [1]: 0.63%
EOSINOPHIL [1]: 0.73%
ERYTHROCYTE COUNT [1]: 6.55 x10E6/uL
HEMATOCRIT [1]: 42.83%
HEMOGLOBIN [1]: 13.6 G/DL
LEUKOCYTE COUNT [1]: 11.33 x10E3/uL
LYMPHOCYTE [1]: 74.77%
MEAN CORPUSCULAR HEMOGLOBIN [1]: 20.77 pg
MEAN CORPUSCULAR HEMOGLOBIN CONCENTRATION [1]: 31.7 G/DL
MEAN CORPUSCULAR VOLUME [1]: 65.53 fL
MONOCYTE [1]: 3%
NEUTROPHIL [1]: 20.2%
PLATELET COUNT [1]: 1394.33 x10E3/uL
ALANINE AMINOTRANSFERASE [1]: 34 u/L
ALBUMIN [1]: 4.03 G/DL
ALKALINE PHOSPHATASE [1]: 345.33 u/L
ASPARTATE AMINOTRANSFERASE [1]: 69.67 u/L
BLOOD UREA NITROGEN [1]: 14.33 mg/dL
CARBON DIOXIDE [1]: 46 mmol/L
CHLORIDE [1]: 102.67 MEQ/L
CHOLESTEROL [1]: 85 mg/dL
CREATINE PHOSPHOKINASE [1]: 292 u/L
CREATININE [1]: 0.2 mg/dL
GLUCOSE [1]: 168 mg/dL
LACTATE DEHYDROGENASE [1]: 114.33 u/L
LIPASE [1]: 13 u/L
PHOSPHORUS [1]: 11.2 mg/dL
POTASSIUM [1]: 7.07 MEQ/L
SODIUM [1]: 144.67 MEQ/L
TOTAL BILIRUBIN [1]: 0.27 mg/dL
TOTAL PROTEIN [1]: 6.57 G/DL
URIC ACID [1]: 0.73 mg/dL
ABSOLUTE BASOPHIL [2]: 36.7 cells/µL
ABSOLUTE EOSINOPHIL [2]: 40 cells/µL
ABSOLUTE LYMPHOCYTE [2]: 7660 cells/µL
ABSOLUTE MONOCYTE [2]: 240 cells/µL
BASOPHIL [2]: 0.37%
EOSINOPHIL [2]: 0.43%
ERYTHROCYTE COUNT [2]: 7.06 x10E6/uL
HEMATOCRIT [2]: 46.1%
HEMOGLOBIN [2]: 14.4 G/DL
LEUKOCYTE COUNT [2]: 9.56 x10E3/uL
LYMPHOCYTE [2]: 79.8%
MEAN CORPUSCULAR HEMOGLOBIN [2]: 20.4 pg
MEAN CORPUSCULAR HEMOGLOBIN CONCENTRATION [2]: 31.2 G/DL
MEAN CORPUSCULAR VOLUME [2]: 65.37 fL
MONOCYTE [2]: 2.57%
NEUTROPHIL [2]: 16.23%
PLATELET COUNT [2]: 1451.67 x10E3/uL
ALANINE AMINOTRANSFERASE [2]: 40.67 u/L
ALBUMIN [2]: 4.03 G/DL
ALKALINE PHOSPHATASE [2]: 348 u/L
ASPARTATE AMINOTRANSFERASE [2]: 71.67 u/L
BLOOD UREA NITROGEN [2]: 15 mg/dL
CARBON DIOXIDE [2]: 42.67 mmol/L
CHLORIDE [2]: 103.33 MEQ/L
CHOLESTEROL [2]: 98.67 mg/dL
CREATINE PHOSPHOKINASE [2]: 439.67 u/L
CREATININE [2]: 0.3 mg/dL
GLUCOSE [2]: 185.67 mg/dL
LACTATE DEHYDROGENASE [2]: 90 u/L
LIPASE [2]: 12 u/L
PHOSPHORUS [2]: 11.67 mg/dL
POTASSIUM [2]: 6.3 MEQ/L
SODIUM [2]: 146 MEQ/L
TOTAL BILIRUBIN [2]: 0.27 mg/dL
TOTAL PROTEIN [2]: 6.7 G/DL
URIC ACID [2]: 0.97 mg/dL
